This is an account of results in patent US20190248834A1, “ENDOMORPHIN-2, TETRAPEPTIDE DERIVATIVES THEREOF, AND USES THEREOF” (priority 2016, published 2019).

Non-standard residues stand in square brackets, D forms with d. pGlu = O=C1CC[C@@H](C(=O)O)N1

Holding throughout (assay type): in vivo, human
The test system of one assay is bruised finger. Kind of assay: Example 37: analgesic effect on bruised finger, topical. To be noted: 1% (w/v) in WEP442, topical. An excerpt: A subject, severely bruised their left 5th finger while trying to close a basement window in their house. The pain was intense, and associated with subcutaneous hemorrhage.
In a further assay the test system is tennis elbow pain. In words: Example 68: analgesic effect on tennis elbow pain, topical. An excerpt:
A person who played tennis recreationally for several decades developed increasingly severe pain in the elbow of their right arm. Two acupuncture treatments provided partial relief. […] They now play tennis with no pain.

The next assay concerns psoriatic knee pain. In words: Example 66: analgesic effect on psoriatic knee pain, topical. To be noted: 0.5% (w/v) in WEP442, topical. The text has this: A person with plaque psoriasis of the scalp, elbows and knees for about 10 years had pain in their knees for the past 4-5 years. The knee pain had gradually worsened. […] After hiking for several hours, the knee pain sometimes re-occurred, but it was immediately relieved by topical application of the above solution composition.

The subject of the next assay is chronic knee pain. Kind of assay: Example 46: analgesic effect on chronic knee pain from post-trauma, topical. To be noted: 1% (w/v) in WEP442, topical. The text has this:
Onset of pain occurred in adulthood […], worsening to a level that compromised their performance as a hospital nurse.

Assay [1] deals with very severe headaches with nausea and vomiting. Kind of assay: Example 24: analgesic effect on severe headaches, topical. An excerpt:
A subject had very severe headaches and associated nausea and vomiting, which occurred 1-2 times weekly. […] Over this interval, the frequency of headaches decreased to every 7-10 days, and the intensity of pain at the onset of each episode was diminished.

Assay [2] deals with osteoarthritis of the fingers and wrists. Kind of assay: Example 82: pain and flexibility of fingers and wrists affected by osteoarthritis, topical. An excerpt: A subject had osteoarthritis of the fingers and wrists for about 10 years, with substantial worsening over the past several months. Symptoms included painful finger joints and wrists. The pain was much worsened by flexion, so that making a first was too painful to try. Moreover, complete flexion had not been possible because of actual physical limitations. Anatomical signs of their disorder, e.g., enlarged finger joints, were conspicuous in their case. […] Additionally, complete flexion of the fingers and making of a tight first could be done without any discomfort.

Assay [3] deals with jaw pain after tooth extraction. In words: Example 28: analgesic effect on dental extraction pain, topical. Here is the method: A subject had substantial pain in the left mandibular jaw that started about 3 hours after extraction of a left mandibular molar tooth. […] Only negligible discomfort was perceptible thereafter.
For assay [4], the system named is arthritic pain in upper back. In words: Example 20: analgesic effect on arthritic pain of upper back, topical. Here is the method:
A subject had arthritic pain in their upper back and associated paresthesia of their fingers, described as feelings of tingling and “pins and needles”. These symptoms had been present for about 1 year. […] Pain relief lasted for 10-12 hours. […] Repeated applications for 10-12 days gave the same results.

Assay [5] deals with traumatized right big toe. Kind of assay: Example 34: analgesic effect on pain in big toe following trauma, topical. To be noted: 1% (w/v) in WEP442, topical. The method, then:
A subject, traumatized their right big toe while repositioning heavy furniture, and experienced disabling persistent pain of that toe. About 10 minutes after the trauma occurred, they topically applied a composition containing 1% (w/v) of N-Ac-Tyr-Pro-Phe-Phe-NH2 (SEQ ID NO: 23) in WEP442 to the toe.

The next assay has as its system neck and shoulder pain. In words: Example 16: analgesic effect on neck and shoulder pain, topical. To be noted: 0.5% (w/v) in WEP442, topical. Here is the method: The subject could not move their neck without having a high level of pain and discomfort. The subject topically applied a composition containing 0.5% (w/v) N-Ac-Tyr-Pro-Phe-Phe-NH2(SEQ ID NO: 23) in WEP442 to the affected area of the skin. […] The pain relief lasted for more than 2 hours.

Assay [6] has as its system post-operative knee soreness. Kind of assay: Example 70: analgesic effect on post-operative tenderness and soreness of knee, topical. To be noted: 0.6% (w/v) in WEP442, topical. An excerpt:
A person underwent surgical repair of a bulging meniscus of the right knee, after which there was substantial tenderness and soreness, particularly so upon their walking, which they were advised to do a few hours daily during the recovery period. Skin glue had been used for wound closure, which allowed for topical applications of a composition containing 0.6% (w/v) of N-Pg-Tyr-Pro-Phe-Phe-NH2 (SEQ ID NO: 44) in WEP442 to the entire knee including 5 surgical wound sites. […] Repeated topical applications provided freedom of movement throughout the day with negligible discomfort.

Assay [7] deals with acute right temporal nauseating headache. Kind of assay: Example 49: topical treatment of severe right temporal headache. Particulars: 1% (w/v) in WEP442, topical. The text has this: They were given, by a nearby companion, a solution composition containing 1% (w/v) of N-Pg-Tyr-Pro-Phe-Phe-NH2 (SEQ ID NO: 44) in WEP442, which they topically applied to the right temporal area, right closed eyelids, entire forehead and right eyebrow.

The test system of a further assay is headache. Kind of assay: Example 65: analgesic effect on headache, topical. To be noted: 0.6% (w/v) in WEP442, topical. The text has this: Several days after the incident causing the injury, they developed a bothersome headache, concentrated to the temporal areas.
The test system of a further assay is migraine. Kind of assay: Example 80: analgesic effect on pain and nausea from migraine headache, topical. To be noted: 0.5% (w/v) in WEP442, topical at onset of symptoms. An excerpt:
A subject with a history of recurrent attacks of migraine, was provided a solution composition containing 0.5% (w/v) of N-Pg-Tyr-Pro-Phe-Phe-NH2 (SEQ ID NO: 44) in WEP442 and a solution composition containing 0.5% (w/v) of N-Ac-Tyr-Pro-Phe-Phe-NHNH2 (SEQ ID NO: 31) in WEP442. […] Sensations of nausea that might have lingered went away after several minutes following a second topical application.

In the case of `CC(=O)N[C@@H](Cc1ccc(O)cc1)C(=O)N1CCC[C@H]1C(=O)N[C@@H](Cc1ccccc1)C(=O)N[C@@H](Cc1ccccc1)C(N)=O` [N-Ac-Tyr-Pro-Phe-Phe-NH2], the pain relief result was “complete relief of pain” with bruised finger; “substantial relief of pain” with tennis elbow pain (0.5% (w/v) in WEP442, topical); “relieved their knee pain” in the assay on psoriatic knee pain; “complete absence of pain” with chronic knee pain; “completely relieve pain and any associated symptoms” in [1] (1% (w/v) in WEP442, topical at onset of symptoms); “complete relief of pain was continually sustained” in [2] (0.8% (w/v) in WEP442, after 1 week, one application every 12 hours). Further, the pain relief entry in [2] (0.8% (w/v) in WEP442, one topical application, within 20 minutes) is on record as “a degree of improvement of pain”; in assay [2] (0.8% (w/v) in WEP442, second application, within another 20 minutes), “almost complete relief”; in [3] (1% (w/v) in WEP442, topical to facial-lower jaw skin) it was “complete relief of pain”; in [4] (1% (w/v) in WEP442, daily topical to upper back) it was “relieved the upper back pain completely”; in assay [5] it was “Complete relief of pain”. Besides, the “time to pain relief” value in the assay with bruised finger is not above 15 s; in the assay with tennis elbow pain (0.5% (w/v) in WEP442, topical), 2 to 4 min; in assay [1] (1% (w/v) in WEP442, topical), 3 to 4 min; in [3] (1% (w/v) in WEP442, topical) it was “less than 1 minute”; in assay [4] (1% (w/v) in WEP442, topical), 3 to 4 min; in assay [5] it was 15 to 30 s. Further, in the assay on neck and shoulder pain, the “time to pain relief” value is not above 2 min. The “range of arm motion” value in the assay with tennis elbow pain (0.5% (w/v) in WEP442, about 1 week of several applications daily) is on record as “returned to normal”. The “duration of pain relief” value was “about 6 hours” with psoriatic knee pain; 10 to 12 h in assay [4] (1% (w/v) in WEP442, topical); “more than 2 hours” in the assay with neck and shoulder pain. Further, the “duration of absence of pain” value with chronic knee pain was 8 h. Moreover, in assay [1] (1% (w/v) in WEP442, repeated uses over 3 months, before: 1-2 times weekly), the “frequency of headaches (interval between headaches)” value was in the range of 7 to 10 days. In addition, the “paresthesia of the fingers” value in [4] (1% (w/v) in WEP442, topical to upper back) is given as “persisted without any discernible change”. In assay [5], the recurrence result was “did not return”. The “relief of pain in shoulder and neck” value in the assay on neck and shoulder pain was “approximately 90%”.
Turning to “N-Pg-Tyr-Pro-Phe-Phe-NH2 ([pGlu]YPFF-NH2; SMILES NC(=O)[C@H](Cc1ccccc1)NC(=O)[C@H](Cc1ccccc1)NC(=O)[C@@H]1CCCN1C(=O)[C@H](Cc1ccc(O)cc1)NC(=O)[C@@H]1CCC(=O)N1)”, in assay [6], the “duration of pain relief” value lay in the range of 2 to 3 h and the pain relief entry was “rapid, almost complete, relief of pain sensations”. Further, in [7], the pain relief entry was “the headache subsided completely”, the recurrence result is “did not return” and the “time to pain relief” value fell in the range of 3 to 5 min. Besides, the headache relief result in the assay with headache is on record as “almost immediate, complete relief of the headache”. In the assay on migraine, the pain relief entry was “complete relief of pain”.
